Values of other authors as cited in publication PMC4303307 (Biochemistry, 2014).
Where no end group is shown, it is not given here.

Tested on: γ-crystallin
Settings: cited from earlier work

MAC peptide with an acetylated Lys 70: the MAC peptide with an acetylated Lys 70 used by Nahomi et al. (K(Ac)FVIFLDVKHFSPEDLTVK; UniProt P02489 70-88, looked up, fragment)
chaperone activity of acetylated Lys vs Asp at the N-terminal end: enhanced chaperone activity | increase of chaperone activity over nonacetylated peptide (in vitro, γ-crystallin substrate): ~15%
